Measured values: patent US8951563B2, “Antibiotic drug delivery and potentiation” (Technion Research & Development Foundation Limited, priority 2009, dated 2015)
In brackets after ≈: the same amount, converted by molar mass.

Legend:
[1] = Molecular charge and RP-HPLC hydrophobicity of polymers; format: physicochemical; settings: HPLC-RP gradient mobile phase
Text: Briefly, the polymers were synthesized while applying the Fmoc active ester chemistry on a fully automated, programmable peptide synthesizer (Applied Biosystems 433A). After cleavage from the resin, the crude product was extracted with 30% acetonitrile in water and purified by RP-HPLC (Alliance Waters), so as to obtain a chromatographic homogeneity higher than 95%. HPLC runs were typically performed on C18 columns (Vydac, 250 mm×4.6 or 10 mm) using a linear gradient of acetonitrile in water (1% per minute), both solvents containing 0.1% trifluoroacetic acid. The purified polymers were subjected to mass spectrometry (ZQ Waters) and NMR analyses to confirm their composition, and stored as a lyophilized powder at −20° C. Prior to being tested, fresh solutions were prepared in water, vortexed, sonicated, centrifuged and then diluted in the appropriate medium.
“Q” represents the overall molecular charge at physiological pH; “ACN (%)” represents the percent of acetonitrile in the HPLC-RP gradient mobile phase at which the polymer was eluted and which corresponds to the estimated hydrophobicity of the polymer. The column headed by “Ref.” indicates prior reference of the OAK if present, wherein a number in parentheses “(##)” corresponds to the SEQ ID NO in U.S. Pat. No. 7,504,381; the letter “R” indicates a polymer published in Radzishevsky I. S. et al. (2008), Chem. Biol., 15(4), pp. 354-362; and “New” indicates a novel polymer disclosed herein.

A. aureus = format: cell-based
Description: (§1) All bacteria were cultured in Luria-Bertani (LB) medium (10 g/l tryptone, 5 g/l yeast extract, 5 g/l NaCl, pH 7.4).
(§2) Bacteria were grown overnight in LB growth medium and diluted 10,000-fold in same medium.
(§3) Inhibition of proliferation was determined by optical density measurements (620 nm) after incubation overnight at 37° C.

E. coli = format: cell-based
Description: as §1, §2, §3

[2] = Cochleate formation by light microscopy; format: physicochemical; parameters: key: or above (E!); excellent (E); good (G); poor (P); none (N)
Description: Lipid films containing binary mixtures of lipids were made from aliquots of stock solutions in chloroform:methanol (2:1). The solvent was evaporated with a stream of nitrogen gas and the lipids deposited as a film on the walls of a glass tube. The tubes were then placed in a vacuum dessicator for 3 hours. The films were kept under Argon at −20° C. The lipid films were hydrated with buffer solutions of OAK polymers with extensive vortexing, so as to have a lipid to polymer molar ratio of […].
Hydrated films were subjected to freeze thawing three times before imaging, to ensure proper equilibration of OAK with the multilamellar vesicles. A drop of this mixture was placed on a glass slide and covered with a glass coverslip. Light microscopy was carried out at room temperature using a Zeiss Axiovert 100M microscope with a Plan-Neofluar 100×/1.3 oil immersion objective. Images were analyzed with the Zeiss LSM image browser v2.8.
The morphology of the samples of different OAKs and different lipid mixtures could be classified into the following categories.
Table 5 presents the results of cochleate formation with different lipid mixtures of 1:10 lipid to polymer ratio, and a series of OAK polymers, indicated by their alternative denotations and SED ID Nos in parentheses. “Tm” denotes the melting temperature of the lipid bilayer afforded by the given lipid mixture. Some selected samples were further analyzed to confirm the results with freeze fracture electron microscopy for, as indicated in Table 5. Cochleate formation is defined as excellent (E) or above (E!), good (G), poor (P), or none (N) based on the aforementioned comparison, as well as on the abundance of cochleate structures observed in the light microscopy images. Lipid mixtures having a number in parenthesis are samples for which freeze-fracture electron microscopy analysis was conducted. Lipid mixtures having a “+” sign next to the number in parenthesis are samples which were confirmed by freeze-fracture electron microscopy as forming large cochleates with few vesicles and no inverted micellar (HII) morphology (samples 2, 3 and 5), or smaller cochleate structures mixed with other morphologies (samples 0 and 4). Lipid mixtures which contain only anionic lipids are marked with “^A”. Sample 0 is the lipid/OAK system used and presented in Example 1 hereinabove.

[3] = DMPC:TOCL 75:25, 1:10 lipid to polymer ratio
[4] = DMPE:DOPG 75:25, 1:10 lipid to polymer ratio
[5] = DMPE:TOCL 75:25, 1:10 lipid to polymer ratio
[6] = DMPG:TOCL 75:25 (anionic lipids only), 1:10 lipid to polymer ratio
[7] = DOPE:TOCL 75:25, 1:10 lipid to polymer ratio
[8] = DPPE:TOCL 75:25, 1:10 lipid to polymer ratio
[9] = POPC:TOCL 75:25, 1:10 lipid to polymer ratio
[10] = POPE:DOPG 75:25, 1:10 lipid to polymer ratio
[11] = POPE:DOPG:TOCL 80:15:5, 1:10 lipid to polymer ratio
[12] = POPE:TOCL 75:25, 1:10 lipid to polymer ratio
[13] = POPG:TOCL 75:25 (anionic lipids only), 1:10 lipid to polymer ratio
[14] = DMPE:TOCL75:25, 10:1 lipid to polymer ratio (Table 6)
[15] = POPE:TOCL 75:25, 10:1 lipid to polymer ratio (Table 6)

| ACN (%) (percent acetonitrile at elution, estimated hydrophobicity) [1] | MIC A. aureus (A. aureus) | MIC E. coli (E. coli) | Cochleate formation [2, 3] | Cochleate formation [2, 4] | Cochleate formation [2, 5] | Cochleate formation [2, 6] | Cochleate formation [2, 7] | Cochleate formation [2, 8] | Cochleate formation [2, 9] | Cochleate formation [2, 10] | Cochleate formation [2, 11] | Cochleate formation [2, 12] | Cochleate formation [2, 13] | Cochleate formation [2, 14] | Cochleate formation [2, 15] | Structure (SMILES) |
| --- | --- | --- | --- | --- | --- | --- | --- | --- | --- | --- | --- | --- | --- | --- | --- | --- |
| 49.7% | 50 µM (≈ 83.7 µg/mL) | 3.1 µM (≈ 5.19 µg/mL) | N | E | P | G | N | E | P | G | N | G | P | – | – | CCCCCCCCCCCC(=O)N[C@@H](CCCCN)C(=O)NCCCCCCCC(=O)N[C@@H](CCCCN)C(=O)NCCCCCCCC(=O)N[C@@H](CCCCN)C(=O)NCCCCCCCC(=O)N[C@@H](CCCCN)C(=O)NCCCCCCCC(=O)N[C@@H](CCCCN)C(=O)NCCCCCCCC(=O)N[C@@H](CCCCN)C(N)=O [C12K-5α8, C12K(NC8K)5NH2] |
| 50% | 50 µM (≈ 97.2 µg/mL) | 3.1 µM (≈ 6.03 µg/mL) | – | G | – | – | – | – | – | – | – | G | – | – | – | CCCCCCCCCCCC(=O)N[C@@H](CCCCN)C(=O)NCCCCCCCC(=O)N[C@@H](CCCCN)C(=O)NCCCCCCCC(=O)N[C@@H](CCCCN)C(=O)NCCCCCCCC(=O)N[C@@H](CCCCN)C(=O)NCCCCCCCC(=O)N[C@@H](CCCCN)C(=O)NCCCCCCCC(=O)N[C@@H](CCCCN)C(=O)NCCCCCCCC(=O)N[C@@H](CCCCN)C(N)=O [C12K-6α8, C12K(NC8K)6NH2] |
| 45.2% | >50 µM | 12.5 µM (≈ 22.8 µg/mL) | – | – | – | – | – | – | – | – | – | – | – | G | G-E | CCCCCCCCCCCC(=O)N[C@@H](CCCCN)C(=O)NCCCC(=O)N[C@@H](CCCCN)C(=O)NCCCC(=O)N[C@@H](CCCCN)C(=O)NCCCC(=O)N[C@@H](CCCCN)C(=O)NCCCC(=O)N[C@@H](CCCCN)C(=O)NCCCC(=O)N[C@@H](CCCCN)C(=O)NCCCC(=O)N[C@@H](CCCCN)C(=O)NCCCC(=O)N[C@@H](CCCCN)C(N)=O [C12K-7α4, C12K(NC4K)7NH2] |
| 55.2% | >50 µM | >50 µM | – | – | – | – | – | – | – | – | – | – | – | P | N | CCCCCCCCCCCC(=O)N[C@@H](CCCCN)C(=O)NCCCCCCCCCCCC(=O)N[C@@H](CCCCN)C(=O)NCCCCCCCCCCCC(=O)N[C@@H](CCCCN)C(=O)NCCCCCCCCCCCC(=O)N[C@@H](CCCCN)C(=O)NCCCCCCCCCCCC(=O)N[C@@H](CCCCN)C(=O)NCCCCCCCCCCCC(=O)N[C@@H](CCCCN)C(=O)NCCCCCCCCCCCC(=O)N[C@@H](CCCCN)C(=O)NCCCCCCCCCCCC(=O)N[C@@H](CCCCN)C(N)=O [C12K-7α12, C12K(NC12K)7NH2] |
| 48.5% | >50 µM | 3.1 µM (≈ 7.7 µg/mL) | – | G | E | – | G | E | – | N | N | G | – | – | – | CCCCCCCCCCCC(=O)NC(CCCCN)C(=O)NCCCCCCCC(=O)NC(CCCCN)C(=O)NCCCCCCCC(=O)NC(CCCCN)C(=O)NCCCCCCCC(=O)NC(CCCCN)C(=O)NCCCCCCCC(=O)NC(CCCCN)C(=O)NCCCCCCCC(=O)NC(CCCCN)C(=O)NCCCCCCCC(=O)NC(CCCCN)C(=O)NCCCCCCCC(=O)NC(CCCCN)C(=O)NCCCCCCCC(=O)NC(CCCCN)C(N)=O (stereo not drawn) [C12K-8α8, C12K(NC8K)8NH2] |
| 48.4% | >50 µM | 6.25 µM (≈ 17.2 µg/mL) | N | E! | E | N | G | E | N | G | – | G | P | – | – | CCCCCCCCCCCC(=O)NC(CCCCN)C(=O)NCCCCCCCC(=O)NC(CCCCN)C(=O)NCCCCCCCC(=O)NC(CCCCN)C(=O)NCCCCCCCC(=O)NC(CCCCN)C(=O)NCCCCCCCC(=O)NC(CCCCN)C(=O)NCCCCCCCC(=O)NC(CCCCN)C(=O)NCCCCCCCC(=O)NC(CCCCN)C(=O)NCCCCCCCC(=O)NC(CCCCN)C(=O)NCCCCCCCC(=O)NC(CCCCN)C(=O)NCCCCCCCC(=O)NC(CCCCN)C(N)=O (stereo not drawn) [C12K-9α8, C12K(NC8K)9NH2] |
| 42.2% | >50 µM | 3.1 µM (≈ 10.2 µg/mL) | – | E | G | – | G | P | P | P | – | G | N | – | – | CCCCCCCCCCCC(=O)NC(CCCCN)C(=O)NCCCCCCCC(=O)NC(CCCCN)C(=O)NCCCCCCCC(=O)NC(CCCCN)C(=O)NCCCCCCCC(=O)NC(CCCCN)C(=O)NCCCCCCCC(=O)NC(CCCCN)C(=O)NCCCCCCCC(=O)NC(CCCCN)C(=O)NCCCCCCCC(=O)NC(CCCCN)C(=O)NCCCCCCCC(=O)NC(CCCCN)C(=O)NCCCCCCCC(=O)NC(CCCCN)C(=O)NCCCCCCCC(=O)NC(CCCCN)C(=O)NCCCCCCCC(=O)NC(CCCCN)C(=O)NCCCCCCCC(=O)NC(CCCCN)C(N)=O (stereo not drawn) [C12K-11α8, C12K(NC8K)11NH2] |
| 36.9% | 50 µM (≈ 111 µg/mL) | 12.5 µM (≈ 27.9 µg/mL) | – | – | – | – | – | – | – | – | – | – | – | E | G-E | NCCCCCCCCCCCC(=O)NC(CCCCN)C(=O)NCCCCCCCC(=O)NC(CCCCN)C(=O)NCCCCCCCC(=O)NC(CCCCN)C(=O)NCCCCCCCC(=O)NC(CCCCN)C(=O)NCCCCCCCC(=O)NC(CCCCN)C(=O)NCCCCCCCC(=O)NC(CCCCN)C(=O)NCCCCCCCC(=O)NC(CCCCN)C(=O)NCCCCCCCC(=O)NC(CCCCN)C(N)=O (stereo not drawn) [α12-7α8, NC12K(NC8K)7NH2] |
